# Experimental data: patent US20260248833A1, “PYRIMIDINE NUCLEOSIDE TREATMENTS” (The Children`s Medical Center Corporation, priority 2022, published 2026)
# Entries after “also recorded” stand apart in the source; their conditions may differ.
# What was measured:
# [1] = tested on: K562 cells; assay: Terminal restriction fragment (TRF) Southern blot telomere length, K562 cells; type: cell-based, human
# Procedure: Cell culture: K562 cells (ATCC) were grown in RPMI1 1640 (Gibco) media supplemented with 10% fetal bovine serum. 293T cells (ATCC) were grown in DMEM (Gibco) supplemented with 10% fetal bovine serum, and were subcultured using 0.05% trypsin (Gibco). iPSCs were derived, characterized and cultured as previously described. iPSCs were grown in Essential 8 Media (Life Technologies) supplemented with the ROCK inhibitor Y271632 (Stem Cell Technologies) at 10 μM on plates coated with hES qualitied Matrigel matrix (Corning) and were subcultured using Accutase (Stem Cell Technologies).
# (§1) Terminal Restriction Fragment Length Analysis: genomic DNA was isolated from cells using the Invitrogen Purelink Genomic DNA mini kit (Invitrogen). 1-3 μg of gDNA was digested with RsaI and HinfI for 2-3 hrs at 37° C. and loaded onto a 0.6% agarose gel followed by Southern blotting using the Telotaggg Telomere Length Assay Kit (Roche). Quantification was performed using the WALTER webtool.
# [2] = tested on: wild-type iPSCs; assay: Cell cycle analysis by DAPI staining and flow cytometry, iPSCs; type: cell-based, human; conditions: 24 hours
# Procedure: (§2) Cell cycle analysis by DNA content staining and flow cytometry: Cells were prepared either for flow-FISH staining as described (for experiments in FIG. 5) or by ethanol fixation (for data in FIG. 6, 27), followed by rehydration and counterstaining using DAPI (BD Biosciences) and analysis on an LSR-II or Fortessa analyzer (BD Biosciences) using BD FACSDiva 8.0.2. Cells were gated on FSC/SSC as described in FIG. 6d using FlowJo V10.7.1.
# [3] = tested on: 293T cells; assay: Cell growth curves by hemocytometry, 293T cells; type: cell-based
# Procedure: Quantification of cell growth was performed using hemocytometry with trypan blue staining to identify dead cells. For growth curves, 50k cells were plated per 12 well or 100k cells were plated per 6 well and cells were passaged when confluent, counted using a hemocytometer, and replated at equal numbers in fresh media.
# [4] = tested on: super-telomerase cells (TERC-null 293T cells transfected with TERT and TERC); assay: TRF Southern blot telomere synthesis in super-telomerase cells; type: cell-based, human
# Procedure: as §1
# dT supplementation increases levels of dTTP and can reduce dCTP levels, leading to replication stress at high doses. Because replication stress signaling has been implicated in telomerase biology we asked whether replication stress induction explained the telomere length increases seen with dT treatment. We first tested whether telomere elongation is a universal response to replication stress-inducing compounds. […] However, cytotoxicity limited our ability to apply higher doses of replication stress-inducing compounds for time periods long enough to study telomere length changes. […] Using this system, we next asked how high-dose treatment with replication stress-inducing agents such as aphidicolin, hydroxyurea, and the TYMS inhibitor 5FU influence telomere synthesis compared to dT.
# [5] = tested on: human HSPCs; assay: TRF telomere length of HSPCs; type: cell-based; conditions: HSPCs treated with dT for 7 days (FIG. 19)
# Procedure: as §1
# [6] = tested on: 293T cells; assay: Polar metabolite profiling by LC-MS of dT treated 293T cells; type: cell-based, human
# Procedure: Liquid Chromatography-Mass Spectrometry: extraction of and quantification of polar metabolites was performed as described using HPLC grade methanol (Fisher Scientific). If a given species was detected in multiple ion modes, the mode with the highest average signal in the untreated cells was used for analysis.
# [7] = tested on: T-free super-telomerase expressing cells (293T TERC-null); assay: Slot blot of GGAAAG repeat content in cellular DNA; type: cell-based, human
# Procedure: Slot blotting: slot blotting was performed as described with minor modifications. Briefly, DNA concentration was normalized to 20 ng/μl using a nanodrop spectrophotometer. 3.3 μl of DNA was added to 16.5 μl of denaturation solution (0.5 M NaOH, 1.5 M NaCl) and heated to 55° C. for 30 minutes. 495 μl of neutralization solution (0.5 M Tris-HCl, 1.5 M NaCl) was added to denatured DNA and 156 μl of this solution was added in triplicate to different slots on a Bio-Dot SF Apparatus (Bio-Rad) and blotted onto Hybond N+ Membrane (Cytivia). Membrane preparation and washing was performed as described. For samples with paired GGTTAG and GGAAAG slot blots, the above recipe was doubled, and 156 μl was loaded onto parallel membranes in triplicate on each membrane. After blotting, membranes were hybridized and detected as described above for TRF Southern blots using the probe indicated in the figure. Blots were analyzed using ImageJ. Statistical analysis was performed using Graphpad prism V9.1.0.
# [8] = tested on: cell cycle progression; conditions: cited from earlier work
# [9] = tested on: K562 cells; assay: Cell cycle analysis by DAPI staining and flow cytometry, K562 cells; type: cell-based, human
# Procedure: as §2
# [10] = tested on: super-telomerase cells (TERC-null 293T cells transfected with TERT and TERC); assay: Cell cycle analysis by DAPI staining and flow cytometry, super-telomerase cells; type: cell-based, human; conditions: 40 μM dT
# Procedure: as §2
# [11] = increasing doses of dT (FIG. 8a)
smiles,measurement,setting,value
"Cc1cn([C@H]2C[C@H](O)[C@@H](CO)O2)c(=O)[nH]c1=O [dT, 1-[(2R,4S,5R)-4-Hydroxy-5-(hydroxymethyl)oxolan-2-yl]-5-methylpyrimidine-2,4 (1H,3H)-dione]",thymidine doses driving robust telomere length increases,[1]; 34 days of culture in low dose thymidine (FIGS. 2L and 2N),≥ 5 µM
same,doses leading to robust telomere elongation in less than 10 days,[1]; K562 cells,≥ 50 µM
same,telomere length,"[1]; K562 cells, 100 μM of the indicated deoxynucleoside(s) for 8 days","rapidly and robustly increases telomere length; also recorded: promoted telomere lengthening, as did dT alone"
same,telomere lengthening following dT with dNTPase-deficient SAMHD1 H215A or K312A variants,"[1]; K562 cells, 10 days",could not restrict telomere lengthening following dT supplementation
same,telomere lengthening following dT treatment with overexpression of wild-type SAMHD1,"[1]; K562 cells, 10 days, compared to EGFP control",reduced telomere lengthening following dT treatment
same,lowest dT dose giving robust telomere lengthening without growth change,"[1]; K562 cells, 34 days",≥ 5 µM
same,telomere lengthening upon dT treatment in TK1-edited cells,"[1]; K562 cells, CRISPR/Cas9 TK1 edited, 10 days",complete abrogation of the telomere lengthening
same,telomere lengthening upon dT treatment in TK2-edited cells,"[1]; K562 cells, CRISPR/Cas9 TK2 edited, 10 days",no difference in telomere length increases compared to control AAVS1-targeted cells
same,"telomere elongation, increase of base pairs (bp) per day","[1]; K562 cells, at 100 μM dT",204 bp per day
same,"telomere elongation, increase of base pairs (bp) per day","[1]; K562 cells, at […] dT",132 bp per day
same,telomere lengthening in TYMS-knockout cells,"[1]; K562 cells, baseline 16 μM dT, plus 100 μM additional dT or 1 mM dU, 10 days",responsive to dT to promote telomere lengthening
same,dT doses with minimal effects on cell cycle progression,[2],≤ 50 µM
same,cellular growth,"[3]; 20 or 40 μM dT, 34 days",undetectable changes in cellular growth curves; also recorded: undetectable impact on cellular growth
same,dose at which inhibition of growth was detected,[3]; [11],≥ 50 µM
same,doses at which growth was minimally impacted,[3]; [11],below 100 μM
same,dose at which increased telomere repeat synthesis could be observed,[4]; 30 hours,40 µM
same,rescue of telomere synthesis following 5FU treatment,[4]; dT supplementation with maximal doses of 5FU,restored telomere elongation despite maximal doses of 5FU; also recorded: fully rescued telomere synthesis
same,maximal rate of telomere elongation,"[4]; high-dose dT treatment, 30 hours, baseline 103 bp/hour",625 bp/hour
same,telomere repeat synthesis / telomere elongation by telomerase,[4]; treatment for 30 hours,robustly increased telomere repeat synthesis in a dose-responsive and telomerase-dependent manner
same,telomere length,[5],lengthens telomeres in human HSPCs after just 7 days
same,dTDP levels,[6]; 100 μM dT,fourfold
same,levels of dTTP compared to vehicle,[6]; 100 μM dT,four-fold
same,"levels of dTMP, dTDP and dTTP",[6]; 100 μM dT for 24 hours,"increases levels of dTMP, dTDP and dTTP"
same,GGAAAG repeat content,"[7]; 100 μM dT, 30 hours, wild-type versus T-free super-telomerase",an increase in GGAAAG repeat content exclusively in cells expressing T-free telomerase; also recorded: enhanced repeat synthesis by telomerase
same,rescue of GGAAAG repeat synthesis following 5FU treatment,[7]; dT with 5FU,could rescue the inhibition of GGAAAG repeat synthesis following 5FU treatment; also recorded: rescued by dT supplementation
same,doses typically used to synchronize cells in S phase,[8],1 to 2 mM
same,dT doses with no detectable changes in cell cycle distribution,[9],below 12.5 μM
same,cell cycle progression at the telomere-active dose,[10],below those that significantly impacted cell cycle progression
